Tests used:
Assay in all cases: Anti-SARS-CoV-2 activity against VOCs, WST-8 assay in VeroE6 cells
Assay type in all cases: cell-based
Settings in all cases: one range stated for beta, gamma and omicron
SARS-CoV-2^TY8 (Beta) = system: SARS-CoV-2^TY8 (Beta)
SARS-CoV-2^TY7 (Gamma) = system: SARS-CoV-2^TY7 (Gamma)
SARS-CoV-2^929 (Omicron) = system: SARS-CoV-2^929 (Omicron)

CC(C)(C)[C@H](NC(=O)C(Cl)(Cl)Cl)C(=O)N1C[C@H]2[C@@H]([C@H]1C(=O)N[C@H](C#N)C[C@@H]1CCCNC1=O)C2(C)C [Compound 5f, (1R,2S,5S)-N-((S)-1-Cyano-2-((S)-2-oxopiperidin-3-yl)ethyl)-3-((S)-3,3-dimethyl-2-(2,2,2-trichloroacetamido)butanoyl)-6,6-dimethyl-3-azabicyclo[3.1.0]hexane-2-carboxamide]
3–5 fold: loss of antiviral activity against beta variant (SARS-CoV-2^TY8 (Beta)) | loss of antiviral activity against gamma variant (SARS-CoV-2^TY7 (Gamma)) | loss of antiviral activity against omicron variant (SARS-CoV-2^929 (Omicron))
